Laboratory results from patent US20230085307A1, “PYRIDAZINONE COMPOUND AND HERBICIDE” (NISSAN CHEMICAL CORPORATION, priority 2019, published 2023).

Tests used:
late watergrass [1] = assay: Test Example 1: herbicidal activity, application before weed generation under submerged conditions (Table 16, symbol A); type: in vivo, late watergrass (Echinochloa oryzicola); conditions: amount of applied herbicide 320 g/ha
In short: (§1)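 Alluvial soil was flooded to 4 cm depth, weed seeds were sown mixed and 2.5-leaf rice seedlings were transplanted. On sowing day, the compound's emulsion, diluted in water to a set dose, was applied to the water surface. Plants grew at 25–30 °C and were scored 0–5 after three weeks.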

Japanese bulrush [2] = assay: Test Example 1: herbicidal activity, application before weed generation under submerged conditions (Table 16, symbol B); type: in vivo, Japanese bulrush (Schoenoplectus juncoides); conditions: amount of applied herbicide 320 g/ha
In short: as §1

oval-leafed pondweed [3] = assay: Test Example 1: herbicidal activity, application before weed generation under submerged conditions (Table 16, symbol C); type: in vivo, oval-leafed pondweed (Monochoria vaginalis); conditions: amount of applied herbicide 320 g/ha
In short: as §1

late watergrass [4] = assay: Test Example 2: herbicidal activity, application during weed generation under submerged conditions (Table 17, symbol A); type: in vivo, late watergrass (Echinochloa oryzicola); conditions: AAH 320 g/ha; application during weed generation, submerged conditions
In short: (§2)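 Wagner pot, alluvial soil, 4 cm flood; mixed sowing of all species; greenhouse 25° C.–30° C. Emulsifiable formulation, water-diluted to predetermined dose, applied to paddy water at 1–2 leaf stage. Effect rated at 3 wk using the earlier test's scoring criteria.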

Japanese bulrush [5] = assay: Test Example 2: herbicidal activity, application during weed generation under submerged conditions (Table 17, symbol B); type: in vivo, Japanese bulrush (Schoenoplectus juncoides); conditions: AAH 320 g/ha; application during weed generation, submerged conditions
In short: as §2

oval-leafed pondweed [6] = assay: Test Example 2: herbicidal activity, application during weed generation under submerged conditions (Table 17, symbol C); type: in vivo, oval-leafed pondweed (Monochoria vaginalis); conditions: AAH 320 g/ha; application during weed generation, submerged conditions
In short: as §2

barnyard grass [7] = assay: Test Example 3: herbicidal effect by foliage application, Wagner pot (Table 18, symbol H); type: in vivo, barnyard grass (Echinochloa crus-galli); conditions: 320 g/ha
In short: (§3)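 Plants were sown in alluvial soil held under 0.1–0.5 cm standing water and grown 14 days in a greenhouse at 25–30 °C. An emulsifiable formulation, water-diluted to the set dose, was then sprayed onto the foliage, and effects were scored three weeks later using previously defined criteria.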

Chinese sprangletop = assay: Test Example 3: herbicidal effect by foliage application, Wagner pot (Table 18, symbol D); type: in vivo, chinese sprangletop (Leptochloa chinensis); conditions: 320 g/ha
In short: as §3

rice flat sedge = assay: Test Example 3: herbicidal effect by foliage application, Wagner pot (Table 18, symbol E); type: in vivo, rice flat sedge (Cyperus iria); conditions: 320 g/ha
In short: as §3

southern crabgrass = assay: Test Example 5: herbicidal effect by foliage application, plastic box (Table 20, symbol F); type: in vivo, southern crabgrass (Digitaria ciliaris); conditions: foliage application after 14-day growth, evaluated three weeks after application; for herbicidal effect on F: southern crabgrass (evaluation grade 0-5): 320 g/ha
In short: (§4)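 Sow seeds spot-wise in sterilized diluvial soil; cover with ~1.5 cm soil. Grow 14 days in greenhouse, 25° C. to 30° C. Spray foliage with emulsion diluted to predetermined amount. Rate effect after 3 weeks.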

green foxtail = assay: Test Example 5: herbicidal effect by foliage application, plastic box (Table 20, symbol G); type: in vivo, green foxtail (Setaria viridis); conditions: foliage application after 14-day growth, evaluated three weeks after application; for herbicidal effect on G: green foxtail (evaluation grade 0-5): 320 g/ha
In short: as §4

barnyard grass [8] = assay: Test Example 5: herbicidal effect by foliage application, plastic box (Table 20, symbol H); type: in vivo, barnyard grass (Echinochloa crus-galli); conditions: foliage application after 14-day growth, evaluated three weeks after application; for herbicidal effect on H: barnyard grass (evaluation grade 0-5): 320 g/ha
In short: as §4

wild oat = assay: Test Example 5: herbicidal effect by foliage application, plastic box (Table 20, symbol I); type: in vivo, wild oat (Avena fatua); conditions: foliage application after 14-day growth, evaluated three weeks after application; for herbicidal effect on I: wild oat (evaluation grade 0-5): 320 g/ha
In short: as §4

blackgrass = assay: Test Example 5: herbicidal effect by foliage application, plastic box (Table 20, symbol J); type: in vivo, blackgrass (Alopecurus myosuroides); conditions: foliage application after 14-day growth, evaluated three weeks after application; for herbicidal effect on J: blackgrass (evaluation grade 0-5): 320 g/ha
In short: as §4

Italian ryegrass = assay: Test Example 5: herbicidal effect by foliage application, plastic box (Table 20, symbol K); type: in vivo, Italian ryegrass (Lolium multiflorum); conditions: foliage application after 14-day growth, evaluated three weeks after application; for herbicidal effect on K: Italian ryegrass (evaluation grade 0-5): 320 g/ha
In short: as §4

windgrass = assay: Test Example 5: herbicidal effect by foliage application, plastic box (Table 20, symbol L); type: in vivo, windgrass (Apera spica-venti); conditions: foliage application after 14-day growth, evaluated three weeks after application; for herbicidal effect on L: windgrass (evaluation grade 0-5): 320 g/ha
In short: as §4

velvetleaf = assay: Test Example 5: herbicidal effect by foliage application, plastic box (Table 20, symbol M); type: in vivo, velvetleaf (Abutilon theophrasti); conditions: foliage application after 14-day growth, evaluated three weeks after application; for herbicidal effect on M: velvetleaf (evaluation grade 0-5): 320 g/ha
In short: as §4

redroot pigweed = assay: Test Example 5: herbicidal effect by foliage application, plastic box (Table 20, symbol N); type: in vivo, redroot pigweed (Amaranthus retroflexus); conditions: foliage application after 14-day growth, evaluated three weeks after application; for herbicidal effect on N: redroot pigweed (evaluation grade 0-5): 320 g/ha
In short: as §4

lambsquarters = assay: Test Example 5: herbicidal effect by foliage application, plastic box (Table 20, symbol O); type: in vivo, lambsquarters (Chenopodium album); conditions: foliage application after 14-day growth, evaluated three weeks after application; for herbicidal effect on O: lambsquarters (evaluation grade 0-5): 320 g/ha
In short: as §4

chickweed = assay: Test Example 5: herbicidal effect by foliage application, plastic box (Table 20, symbol P); type: in vivo, common chickweed (Stellaria media); conditions: foliage application after 14-day growth, evaluated three weeks after application; for herbicidal effect on P: chickweed (evaluation grade 0-5): 320 g/ha
In short: as §4

persian speedwell = assay: Test Example 5: herbicidal effect by foliage application, plastic box (Table 20, symbol R); type: in vivo, Persian speedwell (Veronica persica); conditions: foliage application after 14-day growth, evaluated three weeks after application; for herbicidal effect on R: persian speedwell (evaluation grade 0-5): 320 g/ha
In short: as §4

[9] = amount of applied herbicide 320 g/ha

Structure (SMILES)	Herbicidal effect, A: late watergrass (late watergrass [1])	Herbicidal effect, B: Japanese bulrush (Japanese bulrush [2])	Herbicidal effect, C: oval-leafed pondweed (oval-leafed pondweed [3])	herbicidal effect rating, A: late watergrass (late watergrass [4])	herbicidal effect rating, B: Japanese bulrush (Japanese bulrush [5])	herbicidal effect rating, C: oval-leafed pondweed (oval-leafed pondweed [6])	herbicidal effect on barnyard grass (H) (barnyard grass [7])	herbicidal effect on Chinese sprangletop (D) (Chinese sprangletop)	herbicidal effect on rice flat sedge (E) (rice flat sedge)	herbicidal effect on F: southern crabgrass (evaluation grade 0-5) (southern crabgrass)	herbicidal effect on G: green foxtail (evaluation grade 0-5) (green foxtail)	herbicidal effect on H: barnyard grass (evaluation grade 0-5) (barnyard grass [8])	herbicidal effect on I: wild oat (evaluation grade 0-5) (wild oat)	herbicidal effect on J: blackgrass (evaluation grade 0-5) (blackgrass)	herbicidal effect on K: Italian ryegrass (evaluation grade 0-5) (Italian ryegrass)	herbicidal effect on L: windgrass (evaluation grade 0-5) (windgrass)	herbicidal effect on M: velvetleaf (evaluation grade 0-5) (velvetleaf)	herbicidal effect on N: redroot pigweed (evaluation grade 0-5) (redroot pigweed)	herbicidal effect on O: lambsquarters (evaluation grade 0-5) (lambsquarters)	herbicidal effect on P: chickweed (evaluation grade 0-5) (chickweed)	also measured
CCCC(=O)Oc1c(C)nn(C)c(=O)c1-c1c(-c2ccc(C)cc2)sc2c(Cl)cccc12 [4-020]	4 (Herbicidal rate of 70% or more and less than 90%)	3 (Herbicidal rate of 40% or more and less than 70%)	0 (Herbicidal rate of 5% or less (almost no effect))	0 (Herbicidal rate of 5% or less (almost no effect))	3 (Herbicidal rate of 40% or more and less than 70%)	0 (Herbicidal rate of 5% or less (almost no effect))	4 (Herbicidal rate of 70% or more and less than 90%)	5 (Herbicidal rate of 90% or more (almost completely withered))	5 (Herbicidal rate of 90% or more (almost completely withered))	0 (Herbicidal rate of 5% or less (almost no effect))	0 (Herbicidal rate of 5% or less (almost no effect))	0 (Herbicidal rate of 5% or less (almost no effect))	3 (Herbicidal rate of 40% or more and less than 70%)	0 (Herbicidal rate of 5% or less (almost no effect))	4 (Herbicidal rate of 70% or more and less than 90%)	5 (Herbicidal rate of 90% or more (almost completely withered))	5 (Herbicidal rate of 90% or more (almost completely withered))	5 (Herbicidal rate of 90% or more (almost completely withered))	2 (Herbicidal rate of 20% or more and less than 40%)	5 (Herbicidal rate of 90% or more (almost completely withered))	herbicidal effect on R: persian speedwell (evaluation grade 0-5) (persian speedwell): 5 (Herbicidal rate of 90% or more (almost completely withered))
CCCC(=O)Oc1c(C)nn(C)c(=O)c1-c1c(-c2ccc(Cl)cc2)sc2c(F)cccc12 [4-041]	3 (Herbicidal rate of 40% or more and less than 70%)	0 (Herbicidal rate of 5% or less (almost no effect))	0 (Herbicidal rate of 5% or less (almost no effect))	0 (Herbicidal rate of 5% or less (almost no effect))	3 (Herbicidal rate of 40% or more and less than 70%)	0 (Herbicidal rate of 5% or less (almost no effect))	5 (Herbicidal rate of 90% or more (almost completely withered))	4 (Herbicidal rate of 70% or more and less than 90%)	5 (Herbicidal rate of 90% or more (almost completely withered))	0 (Herbicidal rate of 5% or less (almost no effect))	3 (Herbicidal rate of 40% or more and less than 70%)	4 (Herbicidal rate of 70% or more and less than 90%)	3 (Herbicidal rate of 40% or more and less than 70%)	1 (Herbicidal rate of 5% or more and less than 20%)	3 (Herbicidal rate of 40% or more and less than 70%)	4 (Herbicidal rate of 70% or more and less than 90%)	5 (Herbicidal rate of 90% or more (almost completely withered))	5 (Herbicidal rate of 90% or more (almost completely withered))	3 (Herbicidal rate of 40% or more and less than 70%)	5 (Herbicidal rate of 90% or more (almost completely withered))	herbicidal effect on R: persian speedwell (evaluation grade 0-5) (persian speedwell): 5 (Herbicidal rate of 90% or more (almost completely withered))
Cc1nn(C)c(=O)c(-c2c(-c3ccc(OC4CCCCO4)cc3)sc3cc(F)c(F)cc23)c1O (stereo not drawn) [5-024]	3 (Herbicidal rate of 40% or more and less than 70%)	0 (Herbicidal rate of 5% or less (almost no effect))	5 (Herbicidal rate of 90% or more (almost completely withered))	0 (Herbicidal rate of 5% or less (almost no effect))	2 (Herbicidal rate of 20% or more and less than 40%)	0 (Herbicidal rate of 5% or less (almost no effect))	4 (Herbicidal rate of 70% or more and less than 90%)	3 (Herbicidal rate of 40% or more and less than 70%)	0 (Herbicidal rate of 5% or less (almost no effect))	–	–	–	–	–	–	–	–	–	–	–	Herbicidal effect by foliage application, F: southern crabgrass (southern crabgrass; [9]): 4 (Herbicidal rate of 70% or more and less than 90%); Herbicidal effect by foliage application, G: green foxtail (green foxtail; [9]): 3 (Herbicidal rate of 40% or more and less than 70%); Herbicidal effect by foliage application, H: barnyard grass (barnyard grass [8]; [9]): 3 (Herbicidal rate of 40% or more and less than 70%); Herbicidal effect by foliage application, I: wild oat (wild oat; [9]): 0 (Herbicidal rate of 5% or less (almost no effect)); Herbicidal effect by foliage application, J: blackgrass (blackgrass; [9]): 1 (Herbicidal rate of 5% or more and less than 20%); Herbicidal effect by foliage application, K: Italian ryegrass (Italian ryegrass; [9]): 0 (Herbicidal rate of 5% or less (almost no effect)); Herbicidal effect by foliage application, L: windgrass (windgrass; [9]): 2 (Herbicidal rate of 20% or more and less than 40%); Herbicidal effect by foliage application, M: velvetleaf (velvetleaf; [9]): 3 (Herbicidal rate of 40% or more and less than 70%); Herbicidal effect by foliage application, N: redroot pigweed (redroot pigweed; [9]): 5 (Herbicidal rate of 90% or more (almost completely withered)); Herbicidal effect by foliage application, O: lambsquarters (lambsquarters; [9]): 5 (Herbicidal rate of 90% or more (almost completely withered)); Herbicidal effect by foliage application, P: chickweed (chickweed; [9]): 5 (Herbicidal rate of 90% or more (almost completely withered)); Herbicidal effect by foliage application, R: persian speedwell (persian speedwell; [9]): 5 (Herbicidal rate of 90% or more (almost completely withered))
